Assay results: PubChem BioAssay AID330 (DTP/NCI, 2004)
Several values for one entry are separate records, joined by “and”; a condition that tells them apart may be missing. Identical values can stand only once. Inconclusive results and toxic doses are left out. The calls were made as follows: active = survival T/C of 150% or more; inactive = T/C below 125% in these data.

Tested on: P388 leukemia ip, CD2F1 mice, survival T/C
Assay: NCI In Vivo Anticancer Drug Screen. Data for tumor model P388 Leukemia (intraperitoneal) in CD2F1 (CDF1) mice
Conditions: endpoint: median survival time, higher = longer survival
Method in brief: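 Mice carrying the transplanted tumor received test compound or vehicle. Survival was recorded in each group, and the value is the treated-group measurement divided by that of the vehicle-treated control group.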

[1] = dose: 100.0 mg/kg/injection, schedule: Q01DX009 (ip), vehicle: saline with Tween-80
[2] = dose: 200.0 mg/kg/injection, schedule: Q01DX009 (ip), vehicle: saline with Tween-80
[3] = dose: 12.5 mg/kg/injection, schedule: Q01DX005 (ip), vehicle: saline with Tween-80
[4] = dose: 25.0 mg/kg/injection, schedule: Q01DX005 (ip), vehicle: saline with Tween-80
[5] = dose: 50.0 mg/kg/injection, schedule: Q01DX005 (ip), vehicle: saline with Tween-80
[6] = dose: 6.25 mg/kg/injection, schedule: Q01DX009 (ip), vehicle: saline
[7] = dose: 12.5 mg/kg/injection, schedule: Q01DX009 (ip), vehicle: saline
[8] = dose: 100.0 mg/kg/injection, schedule: Q04DX002 (ip), vehicle: saline with Tween-80
[9] = dose: 100.0 mg/kg/injection, schedule: Q01DX005 (ip), vehicle: saline with Tween-80
[10] = dose: 200.0 mg/kg/injection, schedule: Q01DX005 (ip), vehicle: saline with Tween-80

Measured: T/C

COC1=CC(O)(CC(N)=O)c2ccccc2C1=O (centres undefined)
inactive: dose: 3.13 mg/kg/injection, schedule: Q01DX009 (ip), vehicle: distilled water + Tween-80 99 % of control | dose: 6.25 mg/kg/injection, schedule: Q01DX009 (ip), vehicle: distilled water + Tween-80 100 % of control | dose: 12.5 mg/kg/injection, schedule: Q01DX009 (ip), vehicle: distilled water + Tween-80 98 % of control | dose: 25.0 mg/kg/injection, schedule: Q01DX009 (ip), vehicle: distilled water + Tween-80 102 % of control | dose: 50.0 mg/kg/injection, schedule: Q01DX009 (ip), vehicle: distilled water + Tween-80 92 % of control | dose: 100.0 mg/kg/injection, schedule: Q01DX009 (ip), vehicle: distilled water + Tween-80 92 % of control

O=c1[nH]c(=O)c2n[nH]nc2[nH]1
inactive: [1] 86 % of control | dose: 100.0 mg/kg/injection, schedule: Q04DX003 (ip), vehicle: saline with Tween-80 90 % of control | [2] 100 % of control | dose: 200.0 mg/kg/injection, schedule: Q04DX003 (ip), vehicle: saline with Tween-80 90 % of control | dose: 400.0 mg/kg/injection, schedule: Q01DX009 (ip), vehicle: saline with Tween-80 95 % of control | dose: 400.0 mg/kg/injection, schedule: Q04DX003 (ip), vehicle: saline with Tween-80 100 % of control

NS(=O)(=O)c1ccc(NC(=O)Oc2ccc([N+](=O)[O-])cc2)cc1
inactive: dose: 100.0 mg/kg/injection, schedule: Q01DX001 (ip), vehicle: saline with Tween-80 100 % of control | dose: 200.0 mg/kg/injection, schedule: Q01DX001 (ip), vehicle: saline with Tween-80 100 % of control | dose: 400.0 mg/kg/injection, schedule: Q01DX001 (ip), vehicle: saline with Tween-80 104 % of control

CC1CC(C)C(C)C(C)(CN(C)C)C1 (centres undefined)
inactive: [3] 102 % of control | [4] 98 % of control | [5] 100 % of control and 96 % of control

N#CC1=C(C#N)C(=O)C(Br)=C(Br)C1=O
inactive: dose: 12.5 mg/kg/injection, schedule: Q01DX005 (ip), vehicle: Klucel + Tween-80 108 % of control | dose: 25.0 mg/kg/injection, schedule: Q01DX005 (ip), vehicle: Klucel + Tween-80 106 % of control | dose: 50.0 mg/kg/injection, schedule: Q01DX005 (ip), vehicle: Klucel + Tween-80 108 % of control

COc1cc2nnn(-c3ccncc3)c2cc1OC
inactive: dose: 25.0 mg/kg/injection, schedule: Q01DX009 (ip), vehicle: other 100 % of control | dose: 50.0 mg/kg/injection, schedule: Q01DX009 (ip), vehicle: other 93 % of control | dose: 100.0 mg/kg/injection, schedule: Q01DX009 (ip), vehicle: other 99 % of control | dose: 200.0 mg/kg/injection, schedule: Q01DX009 (ip), vehicle: other 96 % of control | dose: 400.0 mg/kg/injection, schedule: Q01DX009 (ip), vehicle: other 96 % of control

Cc1ccc(C(=O)C(CN(C)C)CN(C)C)cc1
inactive: dose: 3.12 mg/kg/injection, schedule: Q01DX009 (ip), vehicle: saline 101 % of control and 90 % of control | dose: 3.13 mg/kg/injection, schedule: Q01DX009 (ip), vehicle: saline 112 % of control | [6] 110 % of control [middle of 4 runs] | [7] 107 % of control and 118 % of control

NC(CCl)=NCCOC12CC3CC(CC(C3)C1)C2
inactive: dose: 15.0 mg/kg/injection, schedule: Q01DX005 (ip), vehicle: saline 103 % of control | dose: 30.0 mg/kg/injection, schedule: Q01DX005 (ip), vehicle: saline 103 % of control | dose: 60.0 mg/kg/injection, schedule: Q01DX005 (ip), vehicle: saline 106 % of control and 98 % of control

O=C1CCCC2=C1c1cc3c(cc1CCN2)OCO3
inactive: dose: 25.0 mg/kg/injection, schedule: Q04DX002 (ip), vehicle: saline with Tween-80 101 % of control | dose: 50.0 mg/kg/injection, schedule: Q04DX002 (ip), vehicle: saline with Tween-80 96 % of control | [8] 94 % of control and 97 % of control

CC(C)c1oc(=O)cc2c1C(O)C1OC(=O)C3(C)C(O)C4OC4C2(C)C13 (centres undefined) (tested in a mixture with another compound)
inactive: dose: 15.0 mg/kg/injection, schedule: Q01DX009 (ip), vehicle: saline with Tween-80 113 % of control | dose: 60.0 mg/kg/injection, schedule: Q01DX009 (ip), vehicle: saline with Tween-80 123 % of control

O/N=C1/CCC/C(=N/O)C1
inactive: [5] 100 % of control | [9] 98 % of control | [10] 107 % of control

C/C1=C/C(C)C(O)C(O)C(=O)C2(C)CNC3=C(O2)C(=O)c2c(cc(C)c(O)c2C1=O)C3=O (centres undefined)
inactive: dose: 0.5 mg/kg/injection, schedule: Q01DX009 (ip), vehicle: distilled water + Tween-80 102 % of control and 122 % of control | dose: 1.0 mg/kg/injection, schedule: Q01DX009 (ip), vehicle: distilled water + Tween-80 106 % of control and 117 % of control | dose: 2.0 mg/kg/injection, schedule: Q01DX009 (ip), vehicle: distilled water + Tween-80 108 % of control | dose: 4.0 mg/kg/injection, schedule: Q01DX009 (ip), vehicle: distilled water + Tween-80 102 % of control and 103 % of control | dose: 16.0 mg/kg/injection, schedule: Q01DX009 (ip), vehicle: distilled water + Tween-80 103 % of control and 107 % of control | dose: 32.0 mg/kg/injection, schedule: Q01DX009 (ip), vehicle: distilled water + Tween-80 101 % of control and 103 % of control | dose: 4.0 micrograms/kg/injection, schedule: Q01DX009 (ip), vehicle: water 115 % of control | dose: 8.0 micrograms/kg/injection, schedule: Q01DX009 (ip), vehicle: water 99 % of control | dose: 16.0 micrograms/kg/injection, schedule: Q01DX009 (ip), vehicle: water 98 % of control | dose: 32.0 micrograms/kg/injection, schedule: Q01DX009 (ip), vehicle: water 99 % of control | dose: 64.0 micrograms/kg/injection, schedule: Q01DX009 (ip), vehicle: saline + alcohol 100 % of control | dose: 64.0 micrograms/kg/injection, schedule: Q01DX009 (ip), vehicle: water 102 % of control | dose: 128.0 micrograms/kg/injection, schedule: Q01DX009 (ip), vehicle: saline + alcohol 100 % of control | dose: 256.0 micrograms/kg/injection, schedule: Q01DX009 (ip), vehicle: saline + alcohol 103 % of control

O=C1CN(c2ccccc2)C(=O)CN1/N=C/c1ccco1
inactive: [3] 100 % of control | [4] 95 % of control | [5] 100 % of control and 94 % of control | [9] 98 % of control | [10] 103 % of control

COc1cc2c(c(OC)c1OC)-c1ccc(OC)c(=O)cc1[C@@H](N(C)C)CC2
inactive: dose: 1.25 mg/kg/injection, schedule: Q01DX009 (ip), vehicle: Klucel (hydroxypropylcellulose) (HPC) 100 % of control | dose: 2.5 mg/kg/injection, schedule: Q01DX009 (ip), vehicle: Klucel (hydroxypropylcellulose) (HPC) 107 % of control | dose: 5.0 mg/kg/injection, schedule: Q01DX009 (ip), vehicle: Klucel (hydroxypropylcellulose) (HPC) 112 % of control and 117 % of control | dose: 10.0 mg/kg/injection, schedule: Q01DX009 (ip), vehicle: Klucel (hydroxypropylcellulose) (HPC) 118 % of control and 124 % of control

CCCCCCn1c(Cl)c(C(=O)O)c2ccccc21
inactive: [8] 99 % of control | dose: 200.0 mg/kg/injection, schedule: Q04DX002 (ip), vehicle: saline with Tween-80 97 % of control | dose: 400.0 mg/kg/injection, schedule: Q04DX002 (ip), vehicle: saline with Tween-80 95 % of control

CCCCCCCCCCCCCCCC[N+]1(CCC(C)C)CCOCC1
inactive: dose: 100.0 mg/kg/injection, schedule: Q04DX002 (ip), vehicle: Klucel (hydroxypropylcellulose) (HPC) 100 % of control | dose: 200.0 mg/kg/injection, schedule: Q04DX002 (ip), vehicle: Klucel (hydroxypropylcellulose) (HPC) 94 % of control | dose: 400.0 mg/kg/injection, schedule: Q04DX002 (ip), vehicle: Klucel (hydroxypropylcellulose) (HPC) 104 % of control

OC(CN1CCCCC1)c1ccc(/C=C/c2ccc(Cl)cc2)cc1 (centres undefined)
inactive: [6] 100 % of control | [7] 95 % of control | dose: 25.0 mg/kg/injection, schedule: Q01DX009 (ip), vehicle: saline 96 % of control

O=C(NC(=O)C(F)(F)C(F)(F)C(F)(F)F)Nc1ccc(F)c(Cl)c1
inactive: dose: 50.0 mg/kg/injection, schedule: Q01DX009 (ip), vehicle: saline with Tween-80 107 % of control | [1] 99 % of control | [2] 105 % of control

O=C(O)C1CCC[N-]C1.O=C(O)C1CCC[N-]C1.[Cl][Pt+2][Cl] (centres undefined)
inactive: dose: 5.0 mg/kg/injection, schedule: Q01DX009 (ip), vehicle: saline with Tween-80 100 % of control | dose: 10.0 mg/kg/injection, schedule: Q01DX009 (ip), vehicle: saline with Tween-80 104 % of control | dose: 20.0 mg/kg/injection, schedule: Q01DX009 (ip), vehicle: saline with Tween-80 109 % of control
